# Experimental data taken from patent publication US20250066325A1, “DIRECTED DEGRON MOLECULES AND APPLICATIONS THEREOF” (The Brigham and Women's Hospital, Inc., priority 2021, published 2025).
# “Also recorded” adds a separate entry of the source.
# Key:
# Format in all cases: cell-based
# [1] = target: T1, ZFP91 (Homo sapiens, UniProt Q96JP5+Q96SW2); assay: Immunoblot of endogenous ZF protein ZFP91; conditions: for degradation potency for ZFP91 compared with pomalidomide (immunoblot): MM1.S cells; for off-target degradation of endogenous ZFP91 (immunoblot): dose-dependent
# T1 construct: Immunoblots for endogenous ZF proteins ZFP91 and IKZF3 in MM1.S cells; endogenous in cells; host or cells: JURKAT, MM1.S, SU-DHL-1, H2228
# T1 sequence (Q96JP5 2-570 limits assumed): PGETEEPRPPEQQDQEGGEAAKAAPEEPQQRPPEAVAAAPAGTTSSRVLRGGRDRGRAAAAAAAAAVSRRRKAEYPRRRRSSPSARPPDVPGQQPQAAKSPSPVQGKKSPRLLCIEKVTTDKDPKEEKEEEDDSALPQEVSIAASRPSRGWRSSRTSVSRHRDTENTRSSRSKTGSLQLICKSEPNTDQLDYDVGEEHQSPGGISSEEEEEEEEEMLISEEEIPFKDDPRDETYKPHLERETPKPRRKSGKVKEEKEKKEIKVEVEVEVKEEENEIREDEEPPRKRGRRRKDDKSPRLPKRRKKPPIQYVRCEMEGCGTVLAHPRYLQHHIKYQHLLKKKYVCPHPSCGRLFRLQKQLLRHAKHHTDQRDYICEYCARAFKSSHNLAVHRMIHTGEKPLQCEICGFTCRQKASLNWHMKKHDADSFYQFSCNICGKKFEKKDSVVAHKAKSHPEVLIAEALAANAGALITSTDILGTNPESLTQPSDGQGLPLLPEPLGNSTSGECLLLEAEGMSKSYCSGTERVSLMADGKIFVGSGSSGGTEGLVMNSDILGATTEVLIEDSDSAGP
# T1 sequence (Q96SW2 whole entry): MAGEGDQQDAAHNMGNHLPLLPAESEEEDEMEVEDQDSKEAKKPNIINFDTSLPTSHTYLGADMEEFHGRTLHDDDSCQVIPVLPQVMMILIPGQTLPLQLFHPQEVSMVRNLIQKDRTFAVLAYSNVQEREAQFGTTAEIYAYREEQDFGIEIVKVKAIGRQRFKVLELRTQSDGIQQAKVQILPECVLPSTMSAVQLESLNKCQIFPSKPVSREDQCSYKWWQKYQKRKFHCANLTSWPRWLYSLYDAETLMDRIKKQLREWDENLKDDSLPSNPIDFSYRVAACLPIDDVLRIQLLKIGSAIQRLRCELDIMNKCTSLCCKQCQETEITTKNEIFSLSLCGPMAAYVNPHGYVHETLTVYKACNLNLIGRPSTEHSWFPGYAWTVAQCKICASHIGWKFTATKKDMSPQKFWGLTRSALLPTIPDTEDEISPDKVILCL
# T1 sequence (Q16531 2-1140 partner limits assumed): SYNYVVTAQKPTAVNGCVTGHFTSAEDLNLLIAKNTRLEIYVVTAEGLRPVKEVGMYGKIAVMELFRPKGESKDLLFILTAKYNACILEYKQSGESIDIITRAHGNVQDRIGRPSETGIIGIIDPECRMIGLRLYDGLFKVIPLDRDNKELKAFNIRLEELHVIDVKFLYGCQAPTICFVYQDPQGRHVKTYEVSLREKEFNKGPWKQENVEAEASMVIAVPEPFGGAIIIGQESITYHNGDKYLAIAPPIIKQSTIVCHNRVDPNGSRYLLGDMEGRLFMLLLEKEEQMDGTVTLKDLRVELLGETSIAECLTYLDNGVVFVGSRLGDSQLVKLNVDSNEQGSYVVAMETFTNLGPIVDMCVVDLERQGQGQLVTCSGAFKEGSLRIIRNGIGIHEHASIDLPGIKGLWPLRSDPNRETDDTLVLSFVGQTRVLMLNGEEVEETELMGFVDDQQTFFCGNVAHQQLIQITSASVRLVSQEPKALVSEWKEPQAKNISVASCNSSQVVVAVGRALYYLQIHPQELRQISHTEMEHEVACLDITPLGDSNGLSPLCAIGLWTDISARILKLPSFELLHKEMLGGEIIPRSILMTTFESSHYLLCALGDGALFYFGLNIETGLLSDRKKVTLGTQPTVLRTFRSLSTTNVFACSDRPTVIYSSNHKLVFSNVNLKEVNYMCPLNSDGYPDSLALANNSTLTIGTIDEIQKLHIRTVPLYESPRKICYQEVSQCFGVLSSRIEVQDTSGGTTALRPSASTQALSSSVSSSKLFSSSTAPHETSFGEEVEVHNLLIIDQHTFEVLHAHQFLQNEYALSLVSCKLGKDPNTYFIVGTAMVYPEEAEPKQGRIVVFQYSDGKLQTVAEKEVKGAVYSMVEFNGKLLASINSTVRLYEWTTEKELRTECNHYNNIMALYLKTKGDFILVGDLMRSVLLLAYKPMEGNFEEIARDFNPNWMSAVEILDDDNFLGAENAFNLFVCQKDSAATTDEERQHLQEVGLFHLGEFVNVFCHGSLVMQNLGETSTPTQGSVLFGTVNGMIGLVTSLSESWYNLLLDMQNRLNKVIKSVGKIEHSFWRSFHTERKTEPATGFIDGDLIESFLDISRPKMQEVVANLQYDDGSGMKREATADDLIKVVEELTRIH
# Experimental: (§1) Western blot analysis. Lysates of cells treated with different compounds were collected with ice-cold M-PER™ Mammalian Protein Extraction Reagent (ThermoFisher Scientific, 78501) with freshly added phosphatase (Sigma-Aldrich, 04906837001) and protease (Sigma-Aldrich, 04693124001) inhibitors following the manufacturer's instructions. Next, 20-50 μg of proteins were fractionated with NuPAGE™ 4-12% Bis-Tris gels (ThermoFisher Scientific, NP0335BOX) then transferred onto nitrocellulose membranes using iBot™ Transfer Stacks (ThermoFisher Scientific, IB23002) following the manufacturer's instructions. Membranes were then stained with primary antibodies in 1:1000 dilutions and secondary fluorescent antibodies in 1:3000 dilutions using iBind™ Flex Fluorescent Detection Solution Kit (ThermoFisher Scientific, SLF2019) following the manufacturer's instructions.
# (§2) Primary antibodies used in this study include ZFP91 (Bethyl Laboratories, A303-245A), IKZF3/Aiolos (D1C1E) (Cell Signaling, 15103S), CRBN (D8H3S) (Cell Signaling, 71810S), ALK(D5F3) XP (Cell Signaling, 3633S), phospho-ALK (Tyr1507) (D6F1V) (Cell Signaling, 14678S), β-actin (8H10D10) Mouse mAb (Cell Signaling, 3700S). Fluorescent secondary antibodies used in this study include IRDye 680RD goat anti-mouse IgG (LI-COR Biosciences, 926-68070) and IRDye 800CW goat anti-rabbit IgG (LI-COR Biosciences, 926-32211). Western blot detection was performed using an Odyssey CLx Imaging System (LI-COR Biosciences). Quantification of the relative area and density values of western blot bands were carried out using ImageJ v2.1.0 following the ImageJ User Guide for gel analysis (https://imagej.nih.gov/ij/docs/guide/). Quantified values were normalized by values for loading controls such as β-actin. For phospho NPM-ALK, quantified values were normalized by the values for total ALK.
# [2] = target: T2, IKZF3 (Homo sapiens, UniProt Q96SW2+Q9UKT9); assay: Immunoblot of endogenous ZF protein IKZF3; conditions: for degradation potency for IKZF3 compared with pomalidomide (immunoblot): MM1.S cells; for off-target degradation of endogenous IKZF3 (immunoblot): JURKAT cells, dose-dependent
# T2 construct: Immunoblots for endogenous ZF proteins ZFP91 and IKZF3 in MM1.S cells; endogenous in cells; host or cells: JURKAT, MM1.S
# T2 sequence (Q9UKT9 whole entry): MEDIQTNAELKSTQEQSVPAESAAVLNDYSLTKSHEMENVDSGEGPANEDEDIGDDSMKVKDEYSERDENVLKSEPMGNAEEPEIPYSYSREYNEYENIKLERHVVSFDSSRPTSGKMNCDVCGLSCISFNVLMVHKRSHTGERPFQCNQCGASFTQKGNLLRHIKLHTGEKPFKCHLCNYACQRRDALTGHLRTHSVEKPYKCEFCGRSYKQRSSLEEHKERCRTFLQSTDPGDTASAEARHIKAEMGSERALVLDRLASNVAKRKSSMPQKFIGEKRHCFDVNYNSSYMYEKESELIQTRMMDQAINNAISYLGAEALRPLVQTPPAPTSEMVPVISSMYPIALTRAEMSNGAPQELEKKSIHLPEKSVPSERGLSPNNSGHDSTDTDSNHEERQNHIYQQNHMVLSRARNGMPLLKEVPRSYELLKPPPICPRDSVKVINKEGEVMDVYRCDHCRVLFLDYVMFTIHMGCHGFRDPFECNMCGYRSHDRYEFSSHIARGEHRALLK
# T2 sequence (Q96SW2 whole entry): as the sequence (Q96SW2 whole entry) above
# T2 sequence (Q16531 2-1140 partner limits assumed): as the sequence (Q16531 2-1140 partner limits assumed) above
# Experimental: as §1, §2
# [3] = system: SU-DH-L1 cells; assay: Cell viability assay (CellTiter-Glo); conditions: for IC50: SU-DHL-1, SU-DH-L1 cells, 24 hours
# Experimental: Cell Viability Assay. SU-DH-L1 cells were seeded in 30 μl of 8000 cells per well in 384-well plates pre-printed with 10 mM of the stock compounds in varying volumes using a Tecan D300e Digital Dispenser (Tecan). After 24 hours, cell viability was determined using a CellTiter-Glo Luminescent Cell Viability Assay (Promega, G7571) following the manufacturer's instructions. Dose-response curve fitting and IC50 quantification were determined with four parameter nonlinear regression analysis using GraphPad Prism v8.4.2.
# [4] = system: ZF degrons fused to eGFP in U2OS cells; assay: Automated high-content imaging assay of ZF degron-tagged eGFP degradation (off-target profiling); conditions: U2OS ZF degron reporter cells, 24 hours, doses 4.3 nM to 20 μM
# Text: Development and validation of an off-target profiling platform for PROTACs. To profile the ZF degradation propensity of pomalidomide and its analogs, an automated high-content imaging assay was first developed (FIG. 1A). For this platform, 23-amino acid ZF degrons of 12 ZF proteins were selected that are reportedly degraded by pomalidomide and two ZFs that are not.^2 These ZF degrons were inserted into a lentiviral degradation reporter vector (cilantro 2) to compare the fluorescence of ZF-tagged enhanced green fluorescent protein (eGFP) to untagged mCherry with high-content imaging (FIG. 1A). With this assay, wherein compounds are scanned against the 14 stable cell lines containing our tagged ZF-proteins, dose-dependent degradation of ZF degron-tagged eGFP by pomalidomide was reliably detected with a robust readout (Z-prime value of 0.8) (FIG. 5). […] Unlike mass spectrometry, this reporter-based method is not limited by cell-type-specific expression levels of analyte proteins nor by the accessibility to ZFs in the context of full-length proteins that are engaged in protein complexes. […]
# The fluorescence intensity of eGFP was normalized to that of mCherry for every cell. […] The degradation score was then calculated by taking the sum of the GFP degradation fractions across all doses for each compound. […]
# [5] = system: MOLT4 and KELLY cells; assay: Global proteomic studies (TMT) of IMiDs in ZF protein-relevant cell lines; conditions: 1 μM
# Experimental: Global proteomic studies. To validate the results from the imagining-based experiments, Applicant performed proteomics studies in two ZF protein-relevant cell lines (MOLT4 and KELLY).^26 Briefly, Applicant treated the ZF protein-relevant cells (MOLT4 and KELLY) with IMiDs or PROTACs at 1 μM concentrations, and the protein lysates were prepared from the cells were digested, and labeled using a TMT-based quantification kit. Labeled samples were subjected to LC/MS on an Orbitrap Eclipse Tribrid mass spectrometer. Applicant used the Proteome Discoverer software pipeline and identified the final hits by searching against the uniport database.
# [6] = listed as Thalidomide analog with amino group on C5 position
Structure (SMILES),off-target degradation of endogenous ZFP91 (immunoblot) ([1]; JURKAT cells),off-target degradation of endogenous IKZF3 (immunoblot) [2],"IC50 ([3]; Homo sapiens, Example 1)",off-target degradation of ZF degron-tagged eGFP [4],further results
Nc1ccc2c(c1)C(=O)N(C1CCC(=O)NC1=O)C2=O (stereo not shown) [5-aminothalidomide],,,,,"degradation potency for ZFP91 compared with pomalidomide (immunoblot) [1]: decrease in overall degradation potency; degradation potency for ZFP91 compared with pomalidomide (immunoblot) [1, 6]: decrease in the potency; degradation potency for IKZF3 compared with pomalidomide (immunoblot) [2]: decrease in overall degradation potency; degradation potency for IKZF3 compared with pomalidomide (immunoblot) [2, 6]: decrease in the potency"
Nc1cccc2c1C(=O)N(C1CCC(=O)NC1=O)C2=O (stereo not shown) [Pomalidomide],,,,degraded all 12 ZF degrons,off-target profile in global proteomics [5]: exhibited the commonly reported off-targets
Cc1cc(Nc2ncc(Cl)c(Nc3ccccc3S(=O)(=O)C(C)C)n2)c(OC(C)C)cc1C1CCNCC1 [ceritinib],,,69.3 nM,,

# Further lines, with some results ahead:
off-target degradation of endogenous ZFP91 (immunoblot) ([1]; JURKAT cells),off-target degradation of endogenous IKZF3 (immunoblot) [2],Structure (SMILES),"IC50 ([3]; Homo sapiens, Example 1)",off-target degradation of ZF degron-tagged eGFP [4],further results
off-target degradation,off-target degradation,Cc1cc(Nc2ncc(Cl)c(Nc3ccccc3S(=O)(=O)C(C)C)n2)c(OC(C)C)cc1C1CCN(CC(=O)NCCNc2cccc3c2C(=O)N(C2CCC(=O)NC2=O)C3=O)CC1 (stereo not shown) [MS4078],195 nM,"high level of off-target ZF degradation; also recorded: ZNF517, ZNF654, ZNF276, ZNF653, and PATZ1","off-target degradation of endogenous ZFP91 (immunoblot) ([1]; SU-DHL-1 and H2228 cell lines): off-target degradation; EC50 ([3]; Homo sapiens, SU-DHL-1 cells, Example 3 numbering): 195 nM; fold lowering of potency relative to ceritinib ([3]; IC50 ratio, Example 1): 2.8 fold"
off-target degradation,off-target degradation,CC[C@H](C(=O)N1CCCC[C@H]1C(=O)O[C@H](CCc1ccc(OC)c(OC)c1)c1ccccc1OCC(=O)NCCCCCCOc1cccc2c1C(=O)N(C1CCC(=O)NC1=O)C2=O)c1cc(OC)c(OC)c(OC)c1 (stereo partly shown) [dTAG-13],,,
